Assay [1] has as its target Prostaglandin E2 receptor EP2 subtype (Homo sapiens, UniProt P43116). The assay is described as follows: (§1) FLIPR Assay: Cells were seeded at a density of 5×10^4 cells per well in Biocoat® Poly-D-lysine-coated black-wall, clear-bottom 96-well plates (Becton-Dickinson) and allowed to attach overnight in an incubator at 37° C. Cells were then washed two times with HBSS-HEPES buffer (Hanks Balanced Salt Solution without bicarbonate and phenol red, 20 mM HEPES, pH 7.4) using a Denley Cellwash plate washer (Labsystems). After 45 minutes of dye-loading in the dark, using the calcium-sensitive dye Fluo-4 AM at a final concentration of […], plates were washed four times with HBSS-HEPES buffer to remove excess dye leaving […] in each well. Plates were re-equilibrated to 37° C. for a few minutes.Cells were excited with an Argon laser at 488 nm, and emission was measured through a 510-570 nm bandwidth emission filter (FLIPR™, Molecular Devices, Sunnyvale, Calif.). Drug solution was added in a 50 μl volume to each well to give the desired final concentration. The peak increase in fluorescence intensity was recorded for each well. On each plate, four wells each served as negative (HBSS-HEPES buffer) and positive controls (standard agonists: BW245C (hDP); PGE2 (hEP1; hEP2/Gqs5; hEP3A/Gqi5; hEP4/Gqs5); PGF2a (hFP); carbacyclin (hIP); U-46619 (hTP), depending on receptor). The peak fluorescence change in each drug-containing well was then expressed relative to the controls.

For assay [2], the target named is T1, Prostaglandin E2 receptor EP4 subtype (Homo sapiens, UniProt P35408). The description is as §1.
In assay [3] the target is T1, Prostaglandin E2 receptor EP4 subtype. As to the kind of experiment: Radioligand Binding Assay: HEK-293 cells stably expressing the human or feline FP receptor, or EP1, EP2, or EP4 receptors were washed with TME buffer, scraped from the bottom of the flasks, and homogenized for 30 sec using a Brinkman PT 10/35 polytron. TME buffer was added to achieve a final 40 ml volume in the centrifuge tubes (the composition of TME is 100 mM TRIS base, 20 mM MgCl2, […]; 10N HCl is added to achieve a pH of 7.4).The cell homogenate was centrifuged at 19000 r.p.m. for 20 min at 4° C. using a Beckman Ti-60 rotor. The resultant pellet was resuspended in TME buffer to give a final 1 mg/ml protein concentration, as determined by Biorad assay. Radioligand binding competition assays vs. [3H-]17-phenyl PGF2a (5 nM) were performed in a 100 μl volume for 60 min. Binding reactions were started by adding plasma membrane fraction. The reaction was terminated by the addition of 4 ml ice-cold TRIS-HCl buffer and rapid filtration through glass fiber GF/B filters using a Brandel cell harvester. The filters were washed 3 times with ice-cold buffer and oven dried for one hour.[3H] PGE2 (specific activity 180 Ci mmol) was used as the radioligand for EP receptors. [3H] 17-phenyl PGF2a was employed for FP receptor binding studies. Binding studies employing EP1, EP2, EP4 and FP receptors were performed in duplicate in at least three separate experiments. A 200 μl assay volume was used. […].

This passage reports EC50 and Ki results from ChEMBL document CHEMBL5725219, “Compounds and methods for skin repair” (2017).

T1 sequence (P35408 whole entry): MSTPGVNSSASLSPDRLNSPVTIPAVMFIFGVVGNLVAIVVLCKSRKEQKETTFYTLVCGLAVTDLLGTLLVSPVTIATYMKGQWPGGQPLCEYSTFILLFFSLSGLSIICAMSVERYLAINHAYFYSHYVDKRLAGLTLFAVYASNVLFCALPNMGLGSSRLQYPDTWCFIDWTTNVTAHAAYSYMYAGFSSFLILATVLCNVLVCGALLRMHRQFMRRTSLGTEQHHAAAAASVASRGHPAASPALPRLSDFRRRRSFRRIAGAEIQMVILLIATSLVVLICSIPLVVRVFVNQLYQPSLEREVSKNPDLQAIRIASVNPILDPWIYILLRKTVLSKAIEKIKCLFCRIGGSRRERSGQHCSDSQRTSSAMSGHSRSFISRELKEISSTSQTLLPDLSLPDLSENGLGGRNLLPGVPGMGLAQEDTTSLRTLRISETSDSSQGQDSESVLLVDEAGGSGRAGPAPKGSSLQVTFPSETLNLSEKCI
Sequence of Prostaglandin E2 receptor EP2 subtype (P43116 whole entry): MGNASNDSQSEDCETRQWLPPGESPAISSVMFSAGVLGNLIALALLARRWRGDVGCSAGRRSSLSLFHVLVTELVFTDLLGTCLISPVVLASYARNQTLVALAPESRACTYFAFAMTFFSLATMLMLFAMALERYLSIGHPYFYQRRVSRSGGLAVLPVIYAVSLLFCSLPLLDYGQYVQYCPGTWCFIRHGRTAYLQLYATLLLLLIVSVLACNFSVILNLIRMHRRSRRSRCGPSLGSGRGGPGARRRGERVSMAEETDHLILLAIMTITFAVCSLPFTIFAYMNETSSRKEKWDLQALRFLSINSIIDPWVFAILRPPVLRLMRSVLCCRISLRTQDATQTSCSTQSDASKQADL

In the case of `COc1cc(OC)cc(C(=O)N2CCc3cccc(CCc4ccc(C(=O)O)cc4)c32)c1`, in assay [1], the EC50 (as a rule, the concentration at which the effect is half-maximal) was 183 nM; the inhibition constant (Ki) (in general, the dissociation constant of the complex between target and ligand, obtained from inhibition or displacement) worked out at 821 nM. In addition, the inhibitory constant (Ki) in assay [2] came out at 4860 nM.
Regarding `COc1cc(CN2CCc3cc(F)cc(CCc4ccc(C(=O)O)cc4)c32)cc(OC)c1`, in assay [1], the Ki came out at 14 nM. Further, in assay [2], the EC50 turned out to be 2 nM and the inhibitory constant (Ki) was 2 nM.
For the compound `COc1cccc(CN2CCc3cccc(CCc4ccc(C(=O)O)cc4)c32)c1`, the figures for the inhibition constant Ki in assay [1] and in assay [2] were 23 nM and 123 nM, respectively. Further, in assay [2], the 50% effective concentration (EC50) came out at 178 nM.
With `O=C(O)c1ccc(CCc2cccc3c2N(CCc2ccccc2)CC3)cc1`, the Ki in assay [1] stood at 202 nM. Also, in assay [2], the EC50 was found to be 1580 nM and the Ki was determined as 1090 nM.
For `COc1cccc(CCN2CCc3cccc(CCc4ccc(C(=O)O)cc4)c32)c1`, the Ki in assay [1] worked out at 41 nM; in assay [2], 373 nM. Further, the EC50 in assay [2] is 1260 nM.
`COc1cccc(S(=O)(=O)N2CCc3cccc(CCc4ccc(C(=O)O)cc4)c32)c1`: in assay [1], the Ki came out at 571 nM. Moreover, in assay [2], the EC50 is above 10000 nM and the Ki was above 10000 nM.
`COc1cccc(CN2Cc3cccc(CCc4ccc(C(=O)O)cc4)c3C2)c1`: the Ki in assay [1] came out at 6880 nM. For the same compound, in assay [2], the EC50 was above 10000 nM and the inhibitory constant (Ki) was 9560 nM.
Turning to `COc1cc(CO)cc(S(=O)(=O)N2CCc3cccc(CCc4ccc(C(=O)O)cc4)c32)c1`, the EC50 in assay [2] was above 10000 nM.
Regarding `COc1cccc(Cn2ccc3cccc(CCc4ccc(C(=O)O)cc4)c32)c1`, in assay [1], the Ki was 259 nM. For the same compound, in assay [2], the EC50 is 1620 nM and the inhibitory constant (Ki) was found to be 1680 nM.
Take `O=C(O)c1ccc(CCc2cccc3c2N(Cc2ccc(F)cc2)CC3)cc1`: in assay [1], the EC50 came out at 29 nM and the Ki was found to be 14 nM. In addition, in assay [2], the EC50 amounted to 450 nM and the Ki worked out at 616 nM.
Consider `O=C(O)c1ccc(CCc2cccc3c2N(Cc2cc(F)cc(F)c2)CC3)cc1`, for which, in assay [1], the EC50 was determined as 12 nM and the Ki turned out to be 12 nM. Moreover, in assay [2], the EC50 turned out to be 205 nM and the Ki was determined as 412 nM.
Regarding `O=C(O)c1ccc(CCc2cccc3c2N(Cc2cc(C(F)(F)F)cc(C(F)(F)F)c2)CC3)cc1`, the 50% effective concentration (EC50) in assay [1] was found to be 11 nM. For the same compound, the Ki in assay [1] was found to be 0.3 nM; in assay [2] it was 1200 nM.
On to `COc1cccc(CN2CCc3cccc(CCc4ccc(C(=O)O)s4)c32)c1`, for which the inhibition constant (Ki) in assay [1] worked out at 50 nM; in assay [2], 714 nM.
As for `COc1cccc(CC(=O)N2CCc3cccc(CCc4ccc(C(=O)O)cc4)c32)c1`, the Ki in assay [1] was above 10000 nM. Also, in assay [2], the EC50 is above 10000 nM and the Ki was 449 nM.
In the case of `O=C(O)c1ccc(CCc2cccc3c2N(Cc2cccc(C(F)(F)F)c2)CC3)cc1`, the EC50 turned out to be 15 nM in assay [1] and 187 nM in assay [2]. Further, the Ki was 7 nM in assay [1] and 424 nM in assay [2].
Take `COc1cc(CO)cc(CN2CCc3cccc(CCc4ccc(C(=O)O)s4)c32)c1`: the Ki in assay [3] is 154 nM.
For `O=C(O)c1ccc(CCc2cccc3c2N(Cc2cccc(F)c2)CC3)cc1`, in assay [1], the EC50 stood at 35 nM and the Ki came out at 38 nM. For the same compound, in assay [2], the EC50 came to 123 nM and the Ki came out at 897 nM.
With `COc1cc(OC)cc(N2Cc3cccc(CCc4ccc(C(=O)O)cc4)c3C2)c1`, in assay [2], the Ki is 3900 nM.
Turning to `COc1cccc(CCN2Cc3cccc(CCc4ccc(C(=O)O)cc4)c3C2)c1`, the Ki is 1130 nM in assay [1] and above 10000 nM in assay [2]. For the same compound, the concentration for a half-maximal effect (EC50) in assay [2] is above 10000 nM.
